Measurements as given in patent US20220362386A1, “LIQUID COMPOSITIONS COMPRISING A LEVODOPA AMINO ACID CONJUGATE AND USES THEREOF” (NeuroDerm, Ltd., priority 2019, published 2022).
Structures can show the parent of a compound that is named as a salt. Where two headings read alike, the source gives them in different places. Non-standard residues stand in square brackets, D forms with d. Residues, ends and D or L forms follow the SMILES beside them. Dopa = N[C@@H](Cc1ccc(O)c(O)c1)C(=O)O

Key:
[1] = Human liver S9 stability test; assay type: in vitro ADME; conditions: substrate 10 μM, S9 protein 0.2 mg/mL; for Ke: slope of the percentage decrease of remaining compound, 0-60 minutes
Method in brief: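 Test compounds (TFA salts) at 10 μM incubated with human liver S9 (0.2 mg/mL protein); samples at 0, 5, 15, 30 and 60 min. Ke taken as the slope of percentage decrease in remaining compound over these time points; higher Ke means faster metabolism.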

[2] = Protein binding, equilibrium dialysis method; assay type: in vitro ADME, human; conditions: human, human plasma, pH 7.4, 1.0E-05M
Procedure: (§1) The protein binding values of various LDAA compounds in their TFA salt form (10^−5M) were tested in human plasma. The equilibrium dialysis technique was used to separate the fraction of the test compound that was unbound from the fraction of the test compound that bound to proteins during the test. The test was performed on 96-well plates in a dialysis block constructed from Teflon™.
(§2) The protein containing matrix used was human plasma, wherein the assay matrix was human serum albumin and alpha-1 acid glycoprotein. The protein matrix was spiked with each test compound at 10 μM (by default, n=2) with a final DMSO concentration of 1%. The dialysate compartment is loaded with phosphate buffered saline (PBS, pH 7.4), and the sample compartment was loaded with an equal volume of the spiked protein matrix. The dialysis plate was then sealed and incubated at 37° C. for 4 h.
(§3) Following the incubation, samples were taken from each compartment, diluted with PBS followed by the addition of acetonitrile, after which the samples were centrifuged. The supernatants were collected and analyzed by HPLC-MS/MS. The HPLC tests included a binary LC pump with an autosampler, a C18 column (2×20 mm), and gradient elution. The HPLC conditions were adjusted when necessary.
(§4) A control sample (n=2) was prepared from the spiked protein matrix in the same manner; however, no dialysis was performed on the control. It is noted that the control sample served as the bases for the recovery determination.
(§5) Acebutolol, quinidine, and warfarin were used in each assay as reference compounds, wherein it is known that those reference compounds provide low, medium and high human plasma protein binding values, respectively.
(§6) The % of the tested compound that is bound to proteins and the recovery values were calculated as follows:
(§7) Protein binding (%)=100×(Areap−Areab)/Areap
(§8) Recovery (%)=100×(Areap−Areab)/Areac
(§9) The determination of the recovery % serves as an indicator of reliability of the calculated protein binding value. […] This is most likely due to non-specific binding or degradation of the test compound. It is noted that a recovery of above 60% is considered to be reliable, while under 60% recovery, the results of the test are considered to be unreliable.

human plasma [3] = assay: Protein binding, equilibrium dialysis method; assay type: in vitro ADME; conditions: 1.0E-05M; 37° C., 4 h
Procedure: as §1, §2, §3, §4, §5, §6, §7, §8, §9

[4] = Protein binding, solid phase extraction (SPE) method; assay type: in vitro ADME, human; conditions: human, human plasma, 1.0E−05M, SPE sample preparation
Method in brief: (§10)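 Human plasma spiked with test compound at 10 μM, diluted 1:1 with 4% aqueous phosphoric acid and mixed 15 min before solid phase extraction. Mixed-mode cation exchange (MCX) sorbent used a 2% formic acid wash and 5% NH4OH/methanol elution. Anion exchange (MAX) sorbent used a 5% NH4OH wash and 2% formic acid/methanol elution.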

human plasma [5] = assay: as above; assay type: in vitro ADME; conditions: 1.0E−05M; SPE sample preparation
Method in brief: as §10

[6] = Comparative formulation tests, physical stability (Tables 32a-c, 33a-c); assay type: physicochemical; conditions: LDAA TFA salt/CD formulation; for Physical stability (visual), Day 1: Day 1, room temperature; for Physical stability (visual), Day 2: Day 2, room temperature; for Physical stability (visual), Day 5: Day 5, room temperature after two days at 2-8° C.; for Physical stability (visual), Day 6: Day 6, room temperature after two days at 2-8° C.; for Physical stability (visual), Day 40: Day 40, returned to 2-8° C.
Procedure: It is noted that the formulations were similarly to those above; however, CD was added, and further, the amounts of the antioxidants, i.e., ascorbic acid and NAC, were added at three different concentrations, as detailed in Tables 32a-c below. Further, an additional amount of arginine was added to the solution in order to adjust the pH to a physiologically acceptable pH.
The formulations prepared as detailed in Tables 32a, 32b and 32c were (a) held at room temperature for two days; (b) transferred to a refrigerator (2-8° C.) for two days; and (c) transferred from the refrigerator to room temperature for an additional two days, during which they were assessed again for precipitants. The formulations were then returned to the refrigerator (2-8° C.) and assessed for precipitants on day 40. The physical stability of each formulation was assessed on the first two days and again on the last two days. The physical stability of the formulations was assessed visually. A clear solution was considered to be stable, while a solution comprising precipitants was considered to be physically unstable. The stability results of the formulations of Tables 32a, 32b and 32c are detailed in Tables 33a, 33b and 33c, respectively.

[7] = NB 144-15, ~0.1% Asc + ~0.1% NAC
[8] = NB 144-18, ~0.4% Asc + ~0.4% NAC
[9] = NB 144-20, ~0.8% Asc + ~0.8% NAC

Row | SMILES | Ke [1] | recovery at 4 h, 10 μM ([2]; read-out: % Recovery 1st) [%] | recovery at 4 h, 10 μM ([2]; read-out: % Recovery 2nd) [%] | recovery at 4 h, 10 μM ([2]; read-out: % Recovery Mean) [%] | % Protein Bound 1st (human plasma [3]) [%] | % Protein Bound 2nd (human plasma [3]) [%] | % Protein Bound Mean (human plasma [3]) [%] | recovery at 10 μM ([4]; read-out: % Recovery 1st) [%] | recovery at 10 μM ([4]; read-out: % Recovery 2nd) [%] | recovery at 10 μM ([4]; read-out: % Recovery Mean) [%] | % Protein Bound 1st (human plasma [5]) [%] | % Protein Bound 2nd (human plasma [5]) [%] | % Protein Bound Mean (human plasma [5]) [%] | Physical stability (visual), Day 1 [6, 7] | Physical stability (visual), Day 2 [6, 7] | Physical stability (visual), Day 5 [6, 7] | Physical stability (visual), Day 6 [6, 7] | Physical stability (visual), Day 40 [6, 7] | Physical stability (visual), Day 1 [6, 8] | Physical stability (visual), Day 2 [6, 8] | other results
1 | N[C@@H](Cc1ccc(O)c(O)c1)C(=O)N[C@@H](CC(=O)O)C(=O)O [LD-Asp TFA salt, Levodopa Aspartic Acid] (H-[Dopa]-Asp-OH) | 0.0008 | 105 | 108 | 107 | 99.1 | 99.4 | 99 | 55 | 64 | 60 | 47.8 | 34.1 | 41 | Stable | Stable | Stable | Stable | Stable | Stable | Stable | Physical stability (visual), Day 5 [6, 8]: Stable; Physical stability (visual), Day 6 [6, 8]: Stable; Physical stability (visual), Day 40 [6, 8]: Stable; Physical stability (visual), Day 1 [6, 9]: Stable; Physical stability (visual), Day 2 [6, 9]: Stable; Physical stability (visual), Day 5 [6, 9]: Stable; Physical stability (visual), Day 6 [6, 9]: Stable; Physical stability (visual), Day 40 [6, 9]: Stable
2 | N=C(N)NCCC[C@H](NC(=O)[C@@H](N)Cc1ccc(O)c(O)c1)C(=O)O [LD-Arg TFA salt, Levodopa Arginine TFA Salt] | 0.1268 | 6 | 5 | 6 | 44.1 | 26.4 | 35 | 79 | 79 | 79 | 91.5 | 91.2 | 91 | Stable | Stable | Stable | Stable | Stable | Stable | Stable | metabolism in human liver S9 (in words) [1]: rapidly metabolized; Physical stability (visual), Day 5 [6, 8]: Stable; Physical stability (visual), Day 6 [6, 8]: Stable; Physical stability (visual), Day 40 [6, 8]: Stable; Physical stability (visual), Day 1 [6, 9]: Stable; Physical stability (visual), Day 2 [6, 9]: Stable; Physical stability (visual), Day 5 [6, 9]: Stable; Physical stability (visual), Day 6 [6, 9]: Stable; Physical stability (visual), Day 40 [6, 9]: Stable
